For data set [1], the system named is HBV (HepG2.117 cell line, inducibly HBV producing). Put plainly: Anti-HBV activity: intracellular HBV DNA by real-time PCR in HepG2.117 cells after 3 days of treatment. It is filed as cell-based, hepatitis B virus. The conditions noted are these: Hepatitis B virus, HepG2.117, 72 h, HepG2.117 cells, 3 days of treatment, intracellular HBV DNA by real-time PCR; mean value; read-out: EC50 (μM, mean value). Summed up: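 First, HBV replication is induced in HepG2.117 cells by doxycycline absence. Next, serially diluted compound is added for 3 days. Finally, intracellular HBV DNA is quantified by HBV-specific real-time PCR.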
(In general: Quantitative PCR measures a nucleic acid by following its amplification.)

A short description of a further data set: in vitro. Particulars: human, HepG2 or HepG2.117 cells, 3-days incubation (unmarked values), ATPlite; mean value. The class given is cell-based. Summed up: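 Luminescent ATP quantitation served as the viability endpoint following a 3- or 4-day incubation with test compounds.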

Among the data in patent publication US20230091047A1 (priority 2019, published 2023) are EC50 and CC50 values, retold here.

As to `COc1ccccc1-n1c(NC(C)c2ccncc2)nc2c(c1=O)CCN(C(=O)c1ccc(Cl)c(Cl)c1)C2` (centres unmarked) [Compound C56, 7-(3,4-dichlorobenzoyl)-3-(2-methoxyphenyl)-2-{[1-(pyridin-4-yl)ethyl]amino}-5,6,7,8-tetrahydropyrido[3,4-d]pyrimidin-4(3H)-one], the half-maximal effective concentration (EC50) (in general, the concentration at which the effect is half-maximal) in data set [1] stood at 1.93 µM. Besides, the CC50 (commonly the concentration at which the toxic effect on the cells reaches its halfway point) at 3 days in “in vitro” was over 50 µM.
Regarding `COc1ccccc1-n1c(N)nc2c(c1=O)CCN(C(=O)c1ccc(Cl)c(Cl)c1)C2` [Compound C57, 2-amino-7-(3,4-dichlorobenzoyl)-3-(2-methoxyphenyl)-5,6,7,8-tetrahydropyrido[3,4-d]pyrimidin-4(3H)-one], the EC50 in data set [1] came to 0.91 µM. Further, in the data set “in vitro”, the half-maximal cytotoxic concentration (CC50) at 3 days is over 50 µM.
The matching figures for `COc1ccc(CNc2nc3c(c(=O)n2C2COC2)CCN(C(=O)c2ccc(Cl)c(Cl)c2)C3)cc1` [Compound C58, 7-(3,4-dichlorobenzoyl)-2-{[(4-methoxyphenyl)methyl]amino}-3-(oxetan-3-yl)-5,6,7,8-tetrahydropyrido[3,4-d]pyrimidin-4(3H)-one]: 2.56 µM and 42.8 µM.
With `COc1ccc(CNc2nc3c(c(=O)n2CC2CC2)CCN(C(=O)c2ccc(Cl)c(Cl)c2)C3)cc1` [Compound C59, 3-(cyclopropylmethyl)-7-(3,4-dichlorobenzoyl)-2-{[(4-methoxyphenyl)methyl]amino}-5,6,7,8-tetrahydropyrido[3,4-d]pyrimidin-4(3H)-one], the EC50 in data set [1] stood at 2.53 µM. For the same molecule, the half-maximal cytotoxic concentration (CC50) at 3 days in “in vitro” is over 50 µM.
As to `COc1ccc(CNc2nc3c(c(=O)[nH]2)CCN(C(=O)c2ccc(Cl)c(C)c2)C3)cc1` [Compound C60, 7-(4-chloro-3-methylbenzoyl)-2-{[(4-methoxyphenyl)methyl]amino}-5,6,7,8-tetrahydropyrido[3,4-d]pyrimidin-4(3H)-one], the concentration giving a half-maximal response (EC50) in data set [1] is 3.25 µM. The same molecule yielded a CC50 at 3 days in the data set “in vitro” of 23.8 µM.
The matching figures for `COc1ccc(CNc2nc3c(c(=O)[nH]2)CC(C)N(C(=O)c2ccc(Cl)c(Cl)c2)C3)cc1` (centres unmarked) [Compound C63, 7-(3,4-dichlorobenzoyl)-2-{[(4-methoxyphenyl)methyl]amino}-6-methyl-5,6,7,8-tetrahydropyrido[3,4-d]pyrimidin-4(3H)-one]: 2.59 µM and 28.4 µM.
`COc1ccc(CNc2nc3c(c(=O)[nH]2)C[C@@H](C)N(C(=O)c2ccc(Cl)c(Cl)c2)C3)cc1` [Compound C63A, (6R)-7-(3,4-dichlorobenzoyl)-2-{[(4-methoxyphenyl)methyl]amino}-6-methyl-5,6,7,8-tetrahydropyrido[3,4-d]pyrimidin-4(3H)-one]: the half-maximal effective concentration (EC50) in data set [1] stood at 3.58 µM. Besides, the CC50 at 3 days in the data set “in vitro” came out at 30.4 µM.
`COc1ccc(CNc2nc3c(c(=O)[nH]2)C[C@H](C)N(C(=O)c2ccc(Cl)c(Cl)c2)C3)cc1` [Compound C63B, (6S)-7-(3,4-dichlorobenzoyl)-2-{[(4-methoxyphenyl)methyl]amino}-6-methyl-5,6,7,8-tetrahydropyrido[3,4-d]pyrimidin-4(3H)-one]: the EC50 in data set [1] came out at 1.63 µM. This molecule displayed a half-maximal cytotoxic concentration (CC50) at 3 days in “in vitro” of 35.3 µM.
Regarding `COc1ccc(CNc2nc3c(c(=O)n2C2CCCCC2)CCN(C(=O)c2ccc(Cl)c(Cl)c2)C3)cc1` [Compound C64, 3-cyclohexyl-7-(3,4-dichlorobenzoyl)-2-{[(4-methoxyphenyl)methyl]amino}-5,6,7,8-tetrahydropyrido[3,4-d]pyrimidin-4(3H)-one], the concentration giving a half-maximal response (EC50) in data set [1] came out at 8.91 µM. Besides, the CC50 at 3 days in the data set “in vitro” was over 50 µM.
`COc1ccc(CNc2nc3c(c(=O)n2CC2CCOCC2)CCN(C(=O)c2ccc(Cl)c(Cl)c2)C3)cc1` [Compound C65, 7-(3,4-dichlorobenzoyl)-2-{[(4-methoxyphenyl)methyl]amino}-3-[(oxan-4-yl)methyl]-5,6,7,8-tetrahydropyrido[3,4-d]pyrimidin-4(3H)-one]: in data set [1], the EC50 was determined as 2.72 µM. In addition, the midpoint of cytotoxicity in “in vitro”, the CC50 at 3 days, lay at 37.8 µM.
For the molecule `COc1ccc(CNc2nc3c(c(=O)n2C2CCN(S(C)(=O)=O)CC2)CCN(C(=O)c2ccc(Cl)c(Cl)c2)C3)cc1` [Compound C66, 7-(3,4-dichlorobenzoyl)-3-[1-(methanesulfonyl)piperidin-4-yl]-2-{[(4-methoxyphenyl)methyl]amino}-5,6,7,8-tetrahydropyrido[3,4-d]pyrimidin-4(3H)-one], the EC50 in data set [1] came out at 0.77 µM. In the data set “in vitro”, this molecule returned a CC50 at 3 days of over 50 µM.
The matching figures for `COc1ccc(CNc2nc3c(c(=O)n2CC(C)C)CCN(C(=O)c2ccc(Cl)c(Cl)c2)C3)cc1` [Compound C67, 7-(3,4-dichlorobenzoyl)-2-{[(4-methoxyphenyl)methyl]amino}-3-(2-methylpropyl)-5,6,7,8-tetrahydropyrido[3,4-d]pyrimidin-4(3H)-one]: 9.51 µM and over 50 µM.
As to `COc1ccc(CNc2nc3c(c(=O)n2-c2cccnc2)CCN(C(=O)c2ccc(Cl)c(Cl)c2)C3)cc1` [Compound C68, 7-(3,4-dichlorobenzoyl)-2-{[(4-methoxyphenyl)methyl]amino}-3-(pyridin-3-yl)-5,6,7,8-tetrahydropyrido[3,4-d]pyrimidin-4(3H)-one], the 50% effective concentration (EC50) in data set [1] was found to be 0.66 µM. The molecule also yielded a half-maximal cytotoxic concentration (CC50) at 3 days in “in vitro” of 22.4 µM.
In the case of `COc1ccc(CNc2nc3c(c(=O)[nH]2)CCN(C(=O)c2ccc(Br)c(F)c2)C3)cc1` [Compound C69, 7-(4-bromo-3-fluorobenzoyl)-2-{[(4-methoxyphenyl)methyl]amino}-5,6,7,8-tetrahydropyrido[3,4-d]pyrimidin-4(3H)-one], the EC50 in data set [1] is 10 µM. The molecule also yielded a CC50 at 3 days in the data set “in vitro” of 21 µM.
The matching figures for `COc1ccc(CNc2nc3c(c(=O)n2C2CC2)CCN(C(=O)c2ccc(Cl)c(Cl)c2)C3)cc1` [Compound C70, 3-cyclopropyl-7-(3,4-dichlorobenzoyl)-2-{[(4-methoxyphenyl)methyl]amino}-5,6,7,8-tetrahydropyrido[3,4-d]pyrimidin-4(3H)-one]: 10.8 µM and 23.1 µM.
With `CCCn1c(NCc2ccc(OC)cc2)nc2c(c1=O)CCN(C(=O)c1ccc(Cl)c(Cl)c1)C2` [Compound C71, 7-(3,4-dichlorobenzoyl)-2-{[(4-methoxyphenyl)methyl]amino}-3-propyl-5,6,7,8-tetrahydropyrido[3,4-d]pyrimidin-4(3H)-one], in data set [1], the EC50 amounted to 7.04 µM. Moreover, the CC50 at 3 days in “in vitro” was over 50 µM.
For `COc1ccc(CNc2nc3c(c(=O)n2C(C)C)CCN(C(=O)c2ccc(Cl)c(Cl)c2)C3)cc1` [Compound C72, 7-(3,4-dichlorobenzoyl)-2-{[(4-methoxyphenyl)methyl]amino}-3-(propan-2-yl)-5,6,7,8-tetrahydropyrido[3,4-d]pyrimidin-4(3H)-one] the same measures were 2.77 µM and 40 µM.
Consider `COc1ccc(CNc2nc3c(c(=O)n2C2CCCC2)CCN(C(=O)c2ccc(Cl)c(Cl)c2)C3)cc1` [Compound C73, 3-cyclopentyl-7-(3,4-dichlorobenzoyl)-2-{[(4-methoxyphenyl)methyl]amino}-5,6,7,8-tetrahydropyrido[3,4-d]pyrimidin-4(3H)-one], for which, in data set [1], the EC50 is 9.37 µM. Moreover, in “in vitro”, the CC50 at 3 days is over 50 µM.
For the molecule `CCOC(=O)c1cccc(-n2c(NCc3ccc(OC)cc3)nc3c(c2=O)CCN(C(=O)c2ccc(Cl)c(Cl)c2)C3)c1` [Compound C74, ethyl 3-[7-(3,4-dichlorobenzoyl)-2-{[(4-methoxyphenyl)methyl]amino}-4-oxo-5,6,7,8-tetrahydropyrido[3,4-d]pyrimidin-3(4H)-yl]benzoate], in data set [1], the half-maximal effective concentration (EC50) was found to be 1.43 µM. The molecule further had a CC50 at 3 days in the data set “in vitro” of over 50 µM.
